Patent US20020026053A1, “Novel 3-(substituted) -2- indolinones compounds and use thereof as inhibitors of protein kinase activity” (priority 1997, published 2002)

Biological target: T1, Met receptor (EGFR/Met chimeric cells, EMR) (Homo sapiens, UniProt P08581)
T1 construct: expressed in transfected cells; the other entry of the earlier key: EGFR (P00533, Epidermal growth factor receptor)
Test: Met Autophosphorylation Assay
Type: biochemical
Conditions: protocol P.130
Method in brief: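 Transiently transfected EGFR/Met chimeric (EMR) cells were lysed in HNTG with 1 mM PMSF. Met was captured on plates coated with goat anti-rabbit IgG, then rabbit anti-Met (C-28), using 90 μg lysate/100 μl for 60 min at room temperature. Phosphotyrosine was read by ELISA.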

T1 sequence (P08581 with tags, fused parts or gaps): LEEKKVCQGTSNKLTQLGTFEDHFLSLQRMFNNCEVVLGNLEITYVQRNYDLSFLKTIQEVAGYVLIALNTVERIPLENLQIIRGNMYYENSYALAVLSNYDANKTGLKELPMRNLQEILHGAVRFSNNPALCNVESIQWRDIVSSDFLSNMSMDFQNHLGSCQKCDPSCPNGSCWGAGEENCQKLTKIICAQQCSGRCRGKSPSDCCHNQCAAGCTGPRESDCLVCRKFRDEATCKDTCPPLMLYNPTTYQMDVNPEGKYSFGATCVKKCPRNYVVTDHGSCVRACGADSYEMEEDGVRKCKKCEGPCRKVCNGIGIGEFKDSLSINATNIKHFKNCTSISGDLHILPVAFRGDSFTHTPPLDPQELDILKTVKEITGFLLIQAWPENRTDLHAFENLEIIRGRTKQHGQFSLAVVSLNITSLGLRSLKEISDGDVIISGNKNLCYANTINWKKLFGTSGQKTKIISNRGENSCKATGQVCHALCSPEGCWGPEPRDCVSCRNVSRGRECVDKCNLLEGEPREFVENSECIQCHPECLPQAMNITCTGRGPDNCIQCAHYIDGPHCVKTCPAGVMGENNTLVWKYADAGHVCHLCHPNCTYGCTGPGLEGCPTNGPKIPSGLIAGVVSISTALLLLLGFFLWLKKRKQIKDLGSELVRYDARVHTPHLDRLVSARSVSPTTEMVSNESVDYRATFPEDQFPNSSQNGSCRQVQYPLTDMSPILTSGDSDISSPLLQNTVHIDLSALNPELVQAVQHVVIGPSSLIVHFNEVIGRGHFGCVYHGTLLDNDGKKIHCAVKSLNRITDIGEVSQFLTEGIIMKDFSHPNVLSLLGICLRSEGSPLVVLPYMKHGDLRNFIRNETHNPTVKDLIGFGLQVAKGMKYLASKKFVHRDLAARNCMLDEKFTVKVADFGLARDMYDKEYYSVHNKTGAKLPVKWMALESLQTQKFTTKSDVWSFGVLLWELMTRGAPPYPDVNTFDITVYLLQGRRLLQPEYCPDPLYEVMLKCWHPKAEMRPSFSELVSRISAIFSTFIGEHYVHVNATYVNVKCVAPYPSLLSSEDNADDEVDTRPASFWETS

| SMILES | Met Kinase % Inhibition (P.130) [%] |
| --- | --- |
| Cc1ccc(C=C2C(=O)Nc3c(Br)cc(Br)c(C)c32)cc1 [10736/H05] | 21.1 |
| Cc1c(Br)cc(Br)c2c1C(=Cc1cccc(Cl)c1)C(=O)N2 [10736/H06] | 27.4 |
